# From US9169285B2, “Methods for purifying steviol glycosides and uses of the same” (The Coca-Cola Company, priority 2011, dated 2015)
# Entries after “also recorded” stand apart in the source; their conditions may differ.
# Tests used:
# one experienced panelist = experiment: Taste evaluation of Reb X against Reb A and Reb D, controlled multi-sip and swallow taste method; format: in vivo, human; details: for Taste Properties: 500 ppm in citric buffer (pH 3.22)
# Description: The taste properties of a sample of Reb X were studied against Rebaudioside A (Reb A) and Rebaudioside D (Reb D) samples. Reb A was obtained from Cargill (lot #1040) and Reb-D was obtained from PureCircle (lot #Nov. 3, 2008).
# The samples were prepared at 500 ppm for sweetness evaluation by adding moisture compensated mass into a 100 mL sample of carbon-treated water and citric buffer solutions.
# (§1) Citric buffer was prepared by mixing 1.171 g/L citric acid, 0.275 g/L sodium citrate and 0.185 g/L sodium benzoate with carbon-treated water, with a final pH of 3.22. The mixtures were moderately stirred at room temperature. The Reb X sample was then evaluated against the two control Reb A and Reb D samples in water and citric buffer at room temperature (RT) and at 4° C. in an ice bath by one experienced panelist for any tasting quality determinations using the controlled, multi-sip and swallow taste method shown below:
# 1. Take first sip (˜1.8 mL) of control and swallow. Wait for 15-25 sec, then take second sip of control and wait for 15-25 sec.
# 2. Take first sip of the experimental sample, wait for 15-25 sec, then take second sip. Compare to second sip of control.
# 3. Repeat steps #1 and #2 for the third and fourth sips of the control and experimental samples to confirm the initial finding.
# panelists = experiment: Sensory properties of steviol glycosides in acidified water (pH 3.0) at 500 mg/L, 20 panelists; format: in vivo, human; details: for Overall evaluation: Satisfactory, number of panelists / Quality of sweet taste (comment) / Quality of sweet taste: number of panelists giving the comment / Astringent taste: number of panelists detected the attribute / Bitter taste: number of panelists detected the attribute / Licorice taste: number of panelists detected the attribute / Sweet Aftertaste: number of panelists detected the attribute: 500 ppm (sucrose 10,000 ppm); for Astringent taste: number of panelists detected the attribute / Bitter taste: number of panelists detected the attribute / Licorice taste: number of panelists detected the attribute / Sweet Aftertaste: number of panelists detected the attribute: acidified water pH 3.0 by phosphoric acid, 20 panelists
# Description: The sensory properties of Reb X were evaluated in acidified water (pH 3.0 by phosphoric acid) at 500 mg/L concentration by 20 panelists.
# [1] = test system: semi-trained panel members; experiment: Sensory comparison of Reb X and Reb A, iso-sweet samples of 8% sucrose equivalent sweetness; format: in vivo, human
# Description: To compare the sensory attributes between Reb X and Reb A, iso-sweet samples having 8% sucrose equivalent sweetness were made with filtered water as shown in Table 8. An 8% sugar solution in water at room temperature was used as a control. An 8% sugar solution in the acidified solution was used as the control. The samples prepared with filtered water were evaluated by 34 semi-trained panel members at room temperature. The samples prepared with acidified water were evaluated by 23 semi-trained panel members at room temperature. Samples were given to the panel members sequentially and coded with triple digit numbers. The order of sample presentation was randomized to avoid order of presentation bias. Water and unsalted crackers were provided in order to cleanse the palate. The panel members were asked to rate different attributes including sweetness onset, total sweetness, rounded sweetness, bitterness, acidity, leafy note, licorice, astringency, mouthfeel, mouth coating, sweet lingering, and bitter lingering. Samples were rated on a scale of zero (0) to ten (10), with zero indicating immediate onset, no intensity, watery/low viscosity, or very sharp peak, and ten indicating very delayed onset, high intensity, thick/high viscosity, or very round peak. One-way single factor ANOVA was used to analyze sensory results, where α=0.05.
# [2] = Solubility studies of Reb X in carbon-treated water and citrate buffer; format: physicochemical
# Description: as §1
# The samples used to evaluate the taste properties in Example 2 were also used for solubility studies.
# one experienced taster = experiment: Isosweetness determination of Reb X in citric buffer against sucrose controls; format: in vivo, human
# Description: (§2) The isosweetness levels of Reb X in a citric buffer system at room temperature and 4° C. were evaluated. A 600 ppm stock solution of Reb X was prepared by adding a mass of 0.15 g into a 250 mL sample of citric buffer (CB) solution. The mixture was moderately stirred at warmer temperature (up to ca. 52° C.) on a heated stirrer for about 15-20 minutes and then cooled. The citric buffer was prepared by adding 1.6 g citric acid, 0.6 g potassium citrate and 0.253 g sodium benzoate in 1 L of carbon-treated water. The pH of the mixture was 3.1. Seven diluted Reb X solutions at […], 25, 50, 100, 200, 300, 400 and 500 ppm were prepared by adding a 2.08, 4.17, 8.33, 16.67, 25.00, 33.33 and 41.67 mL Reb X stock solution, respectively, into each 50 mL solution of CB. The controls of 0.75%, 2%, 4%, 6%, 8%, 10% and 15% sucrose equivalence (SE) were also prepared by adding sugar (w/v) into the CB. The mixtures were moderately stirred and then ready for the isosweetness determination test. The Reb X samples were then evaluated against the control sugar samples in citric buffer at room temperature (RT) and 4° C. (in an ice bath) by one experienced taster for an isosweetness determination using the controlled, multi-sip and swallow taste method.
# panel of trained tasters = experiment: Reb X sweetness vs. concentration, matched to sucrose reference solutions; format: in vivo, human; details: Sweetness Equivalent (SE) 2.5%; Reb X 98% purity; water, room temperature
# Description: 2.5%, 5.0%, 7.5%, and 10.0% sucrose solutions were prepared in neutral (7.0 pH) and acidified water (3.2 pH) as reference samples. Solutions containing Reb X (98% purity) were prepared to match the sweetness of each sucrose reference in neutral and acidified water. Samples were tasted and verified by a panel of trained tasters in water at room temperature.
# [3] = Taste comparison of Reb X and Reb A in beverage formulations; format: in vivo
# [4] = Solubility of the Reb X stock solution in citric buffer; format: physicochemical; details: Reb X 0.06% (w/v) in citric buffer, up to 52° C., ca. 15-20 minutes
# Description: as §2
# [5] = acidified water pH 3.0, 20 panelists
smiles,measurement,setting,value
"C=C1C[C@@]23CC[C@H]4[C@@](C)(CCC[C@@]4(C)C(=O)O[C@@H]4O[C@H](CO)[C@@H](O)[C@H](O)[C@H]4O[C@@H]4O[C@H](CO)[C@@H](O)[C@H](O)[C@H]4O)[C@@H]2CC[C@]1(O[C@@H]1O[C@H](CO)[C@@H](O)[C@H](O[C@@H]2O[C@H](CO)[C@@H](O)[C@H](O)[C@H]2O)[C@H]1O[C@@H]1O[C@H](CO)[C@@H](O)[C@H](O)[C@H]1O)C3 [Reb D, Rebaudioside D]",Taste Properties,one experienced panelist; 4° C.,more sweet
same,"Overall evaluation: Satisfactory, number of panelists",panelists; [5],(11 of 20)
same,Quality of sweet taste (comment),panelists; [5],Clean
same,Quality of sweet taste: number of panelists giving the comment,panelists; [5],9 of 20
same,Astringent taste: number of panelists detected the attribute,panelists,3
same,Bitter taste: number of panelists detected the attribute,panelists,3
same,Licorice taste: number of panelists detected the attribute,panelists,2
same,Sweet Aftertaste: number of panelists detected the attribute,panelists,5
OC[C@H]1O[C@@](CO)(O[C@H]2O[C@H](CO)[C@@H](O)[C@H](O)[C@H]2O)[C@@H](O)[C@@H]1O [Sucrose],"Overall evaluation: Satisfactory, number of panelists",panelists; [5],(20 of 20)
same,Quality of sweet taste (comment),panelists; [5],Clean
same,Quality of sweet taste: number of panelists giving the comment,panelists; [5],20 of 20
"C=C1C[C@@]23CCC4[C@](C)(C(=O)OC5OC(CO)C(O)C(OC6OC(CO)C(O)C(O)C6O)C5OC5OC(CO)C(O)C(O)C5O)CCC[C@@]4(C)[C@@H]2CCC1(OC1OC(CO)C(O)C(OC2OC(CO)C(O)C(O)C2O)C1OC1OC(CO)C(O)C(O)C1O)C3 (stereo partly drawn) [Reb X, 13-[(2-O-β-D-glucopyranosyl-3-O-β-D-glucopyranosyl-β-D-glucopyranosyl)oxy]ent kaur-16-en-19-oic acid-[(2-O-β-D-glucopyranosyl-3-O-β-D-glucopyranosyl-β-D-glucopyranosyl)ester]]","Sweetness onset, non-sweet taste and bitterness lingering compared with Reb A","[1]; acidified water (250 ppm citric acid, pH 3.2), 23 panel members, FIG. 12","faster sweetness onset, reduced non-sweet taste (bitterness, sour, astringency) and bitterness lingering"
same,Sweetness compared with Reb A,"[1]; acidified water (250 ppm citric acid, pH 3.2), Reb X 0.0423% vs Reb A 0.0510%, 23 panel members, FIG. 12",perception of higher sweetness of Reb X over Reb A is significant
same,"Bitterness, astringency and bitter lingering compared with Reb A","[1]; filtered water, Reb X 0.0423% vs Reb A 0.0510%, 34 panel members, scale 0-10, FIG. 11","reduced perception of bitterness, astringency and bitter lingering compared to Reb A"
same,Taste Properties,one experienced panelist; room temperature,temporal profile and quality similar to sucrose; also recorded: Clean sweet taste. Broad and full sweetness profile; also recorded: Moderate sweetness linger aftertaste similar to aspartame
same,"Astringency, sweetness depth and bitterness notes","one experienced panelist; 500 ppm, citrate buffer system, compared with Reb A",did not have the astringency or sweetness intense (depth) and bitterness notes compared to that of the Reb A
same,Taste quality compared with Reb A and Reb D,"one experienced panelist; 500 ppm, citric buffer",much better than Reb A or Reb D
same,"Tasting quality, temporal profile and sweetness linger","one experienced panelist; 500 ppm, citric buffer, compared with Reb A",did not display a pure sugar-like tasting quality but rather contained a fatty-like or broader sweet temporal profile and less sweetness linger than that of Reb A
same,"Solubility, initial solubility test","[2]; 500 ppm in citrate buffer, compared with Reb D and Reb A","similar, limited but significantly greater solubility than that of Reb D and significantly less solubility than Reb A"
same,Estimated time to solubilize,[2]; Reb X 0.01% in carbon-treated water,15 min
same,Estimated time to solubilize,[2]; Reb X 0.01% in citrate buffer,25 min
same,Estimated time to solubilize,[2]; Reb X 0.02% in carbon-treated water,25 min
same,Estimated time to solubilize,[2]; Reb X 0.02% in citrate buffer,25 min
same,Estimated time to solubilize,[2]; Reb X 0.04% in carbon-treated water,33 min
same,Estimated time to solubilize,[2]; Reb X 0.04% in citrate buffer,35 min
same,Estimated time to solubilize,[2]; Reb X 0.05% in carbon-treated water,39 min
same,Estimated time to solubilize,[2]; Reb X 0.05% in citrate buffer,42 min
same,Estimated time to solubilize,[2]; Reb X 0.075% in carbon-treated water,55 min
same,Estimated time to solubilize,[2]; Reb X 0.075% in citrate buffer,55 min
same,Estimated time to solubilize,[2]; Reb X 0.10% in carbon-treated water,106 min
same,Estimated time to solubilize,[2]; Reb X 0.10% in citrate buffer,106 min
same,Estimated time to solubilize,[2]; Reb X 0.15% in carbon-treated water,Insoluble after 20 hours
same,Estimated time to solubilize,[2]; Reb X 0.15% in citrate buffer,Insoluble after 20 hours
same,Off-flavors,one experienced taster; Reb X 12.5-600 ppm in citric buffer at 4° C.,"No off-flavors at any Reb X concentrations in CB at 4 °C were detected, except at least ca. 300 ppm which noticeably had a longer sweetness lingering"
same,Sweetness intensity difference between RT and 4° C.,"one experienced taster; Reb X concentration range, direct comparison with control sucrose at similar temperatures",no significant sweetness intensity difference between RT and 4 °C
same,Sweetness tasting quality,"one experienced taster; all Reb X concentrations (12.5-600 ppm), citric buffer",pleasant sweetness tasting quality with a slight delay of sweetness onset and no bitterness
same,Reb X Concentration matching the sucrose reference,panel of trained tasters,48 ppm
same,Quality of sweet taste (comment),panelists; [5],Clean
same,Taste profile compared with known steviol glycosides,"panelists; 500 ppm, acidified water pH 3.0, 20 panelists",superior taste profile to already known steviol glycosides
same,Taste properties compared with Reb A drink,"[3]; flavored zero calorie black tea drink, 250 ppm",much cleaner in finish with less sweetness linger and a more rounded overall sweetness profile
same,Taste properties compared with Reb A drink,"[3]; zero calorie enhanced water drink, 200 ppm",cleaner in finish and had reduced sweetness linger and a more rounded overall sweetness taste quality
same,Reb X level closest in sweetness level to a 11.5 Brix high fructose corn syrup sweetened orange flavored sparkling beverage,[3]; zero calorie orange-flavored sparkling beverage base,500 ppm
same,Taste compared with Reb A-containing formulations,"[3]; zero calorie orange-flavored sparkling beverage, Reb X 400 to 750 ppm in 50 ppm increments",tasted significantly better than comparable Reb A-containing formulations
same,Solubility and appearance,[4],very soluble and clear (colorless)
"C=C1C[C@@]23CC[C@H]4[C@@](C)(CCC[C@@]4(C)C(=O)O[C@@H]4O[C@H](CO)[C@@H](O)[C@H](O)[C@H]4O)[C@@H]2CC[C@]1(O[C@@H]1O[C@H](CO)[C@@H](O)[C@H](O[C@@H]2O[C@H](CO)[C@@H](O)[C@H](O)[C@H]2O)[C@H]1O[C@@H]1O[C@H](CO)[C@@H](O)[C@H](O)[C@H]1O)C3 [Reb A, Rebaudioside A]",Taste Properties,one experienced panelist; 4° C.,more sweet
same,Taste Properties,one experienced panelist; room temperature,"Delayed sweetness onset, significant lingering sweet"
same,"Overall evaluation: Satisfactory, number of panelists",panelists; [5],(1 of 20)
same,Quality of sweet taste (comment),panelists; [5],Bitter
same,Quality of sweet taste: number of panelists giving the comment,panelists; [5],(20 of 20)
same,Astringent taste: number of panelists detected the attribute,panelists,20
same,Bitter taste: number of panelists detected the attribute,panelists,20
same,Licorice taste: number of panelists detected the attribute,panelists,20
same,Sweet Aftertaste: number of panelists detected the attribute,panelists,20
C=C1C[C@@]23CC[C@H]4[C@@](C)(CCC[C@@]4(C)C(=O)O[C@@H]4O[C@H](CO)[C@@H](O)[C@H](O)[C@H]4O)[C@@H]2CC[C@]1(O[C@@H]1O[C@H](CO)[C@@H](O)[C@H](O)[C@H]1O[C@@H]1O[C@H](CO)[C@@H](O)[C@H](O)[C@H]1O)C3 [Stevioside],Quality of sweet taste (comment),panelists; [5],Bitter
same,Quality of sweet taste: number of panelists giving the comment,panelists; [5],(20 of 20)
